Source: patent US9521845B2, “Beta-lactones as antibacterial agents” (LUDWIG-MAXIMILIANS-UNIVERSITÄT-MÜNCHEN, priority 2008, dated 2016)
pEC50, pIC50: −log10 of the molar value. Entries after “also recorded” stand apart in the source; their conditions may differ.

Legend:
[1] = biological target: T1, S-formylglutathione hydrolase (SFGH) (Escherichia coli, UniProt P51025); assay: Substrate inhibition assay (p-nitrophenylacetate), IC50 determination; assay type: biochemical; conditions: beta-lactone G2; substrate 2.4 mM, enzyme 30 nM; estimated
T1 construct: made in house; host or cells: E. coli BL21
T1 sequence (P51025 whole entry): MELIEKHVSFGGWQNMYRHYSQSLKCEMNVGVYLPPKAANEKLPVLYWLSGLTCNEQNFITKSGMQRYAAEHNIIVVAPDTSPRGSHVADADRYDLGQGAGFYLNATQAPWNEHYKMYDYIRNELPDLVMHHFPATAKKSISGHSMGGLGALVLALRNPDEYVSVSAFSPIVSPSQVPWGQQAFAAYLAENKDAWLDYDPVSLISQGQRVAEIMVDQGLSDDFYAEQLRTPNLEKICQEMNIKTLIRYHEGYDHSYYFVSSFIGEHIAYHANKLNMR
Method: SFGH mediated […] of the p-nitrophenylacetate leads to the release of p-nitrophenol which can be monitored at 400 nm. Various concentrations of beta-lactone G2 were added to a solution containing the substrate (2.4 mM) and enzyme (30 nM). Reactions were started by addition of the enzyme and subsequently monitored for 6 min. The mean average slopes of absorption (out of three independent experiments) versus beta-lactone concentration were plotted and the concentration of 50% inhibition (IC50) was estimated.

lipase (Lip) = assay: ABPP probe dose down in proteome, lipase labeling; assay type: binding; conditions: L. welshimeri proteome, concentration range 10 μM to 5 nM
Method: (§1) To estimate the strength of probe interactions with proteins in the proteome, we compared the reactivity profiles of selected beta-lactones across a broad concentration range from 10 μM to 5 nM.
(§2) Proteome samples were adjusted to a final concentration of 1 mg protein/mL by dilution in PBS prior to probe labeling. Experiments for visualization by 1D SDS-PAGE were carried out in 43 μL total volume and those for affinity enrichment in 1892 μL total volume, such that once CC reagents were added, the total reaction volume was 50 μL and 2 mL, respectively. Reactions were initiated by addition of the probe and allowed to incubate for 60 min at room temperature. For heat controls the proteome was denatured with 1 μL of 43% SDS at 95° C. for 6 min and cooled to room temperature before the probe was applied. Following incubation, reporter tagged-azide reagents (13 μM rhodamine-azide for analytical or 20 μM rhodamine-biotin-azide for preparative scale) were added followed by 1 mM TCEP and 100 μM ligand. Samples were gently vortexed and the cycloaddition initiated by the addition of 1 mM CuSO4. The reactions were incubated at room temperature for 1 h (Speers, J. Amer. Chem. Soc. 125 (2003), 4686).

[2] = test system: lipase/acylhydrolase (LipAc); assay: ABPP probe dose down in proteome, lipase/acylhydrolase labeling; assay type: binding; conditions: L. welshimeri proteome
Method: as §1, §2

[3] = biological target: T2, Aldehyde dehydrogenase B (ADB) (Escherichia coli, UniProt P37685); assay: ABPP labeling of E. coli cytosol; assay type: binding; conditions: 100 nM probe concentration, no other off targets
T2 construct: endogenous in cells; host or cells: Escherichia coli K12 lysate, cytosol fraction
T2 sequence (P37685 whole entry): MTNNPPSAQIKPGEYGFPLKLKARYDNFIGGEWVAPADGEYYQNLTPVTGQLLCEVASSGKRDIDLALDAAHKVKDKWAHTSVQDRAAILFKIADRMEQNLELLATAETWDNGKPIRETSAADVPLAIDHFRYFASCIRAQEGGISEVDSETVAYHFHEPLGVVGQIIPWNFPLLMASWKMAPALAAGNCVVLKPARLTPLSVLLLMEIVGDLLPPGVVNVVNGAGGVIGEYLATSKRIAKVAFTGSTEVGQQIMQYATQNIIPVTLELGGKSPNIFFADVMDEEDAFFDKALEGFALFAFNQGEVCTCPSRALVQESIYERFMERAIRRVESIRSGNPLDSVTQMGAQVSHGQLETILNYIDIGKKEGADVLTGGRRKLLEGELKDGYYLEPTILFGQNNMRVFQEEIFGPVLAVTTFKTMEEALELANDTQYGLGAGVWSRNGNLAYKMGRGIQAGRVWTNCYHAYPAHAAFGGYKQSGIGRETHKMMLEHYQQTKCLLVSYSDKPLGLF
Method: as §1, §2

[4] = test system: β-Ketoacyl acyl carrier protein synthase II (KAS II); assay: ABPP labeling of bacterial proteomes, KAS II; assay type: binding, L. welshimeri, B. subtilis; conditions: 50 μM probe, FIGS. 9A and 9B
Text: The library of beta-lactones to be tested comprised compounds with aliphatic or aromatic substitutions varying in length and branching. To evaluate the target selectivity, the beta-lactones were screened against several gram-positive and gram-negative bacterial proteomes including Pseudomonas putida, Listeria welshimeri, Bacillus licheniformis, Bacillus subtilis and Escherichia coli, which are phylogenetically related to pathogenic strains. In addition, mouse liver cytosol was included as an eukaryotic reference proteome. Initial labeling experiments were carried out by adding individual probes at 50 μM concentration to the proteome which is sufficient to achieve full saturation of most targets. […] As an example, labeling of L. welshimeri cytosolic and membrane proteomes as well as B. subtilis cytosolic proteome with a subset of the most complementary probes is shown in FIGS. 9A and 9B. […] Most of the targeted proteins were of low abundance as shown by the direct comparison of the relative intensities observed with Coomassie staining vs. fluorescence scanning (FIG. 11).
Proteome samples were adjusted to a final concentration of 1 mg protein/mL by dilution in PBS prior to probe labeling. […]

[5] = test system: LLO haemolytic activity of L. monocytogenes EGDe; assay: LLO haemolytic activity testing of culture supernatants; assay type: cell-based, Listeria monocytogenes EGDe; conditions: Listeria monocytogenes, Erythrocyte; cultures grown 16 h with lactone, sheep red blood cells; read-out: EC50 of reduction of LLO haemolytic activity
Method: Overnight cultures of L. monocytogenes EGDe were harvested by centrifugation and resuspended in an equal volume of fresh BHB medium. In 1.5 mL Eppendorf tubes, 400 μL of BHB medium were inoculated with 4 μL of the resuspended Listeria culture and 4 μL of a corresponding beta-lactone stock in DMSO. The final concentrations were 800 μM, 400 μM, 200 μM, 100 μM and DMSO as control. The amount of DMSO in all tests was 1% of the medium. After mixing, the test tubes were incubated under continuous shaking at 200 rpm at 37° C. for 16 h. Then, cells were centrifuged and the supernatants filtered sterile by passing them through a 0.2 μm pore size filter. Haemolytic activity of LLO in the culture supernatants was quantitatively investigated according to a method described in J. Food Safety 1998, 18: 197-203 (incorporated herein by reference) with some modifications. In Nunclon™ 96-well plates with round shaped wells 100 μL of serial dilutions of the supernatants in PBS were added per well and incubated with 100 μL of 3% SRBC (sheep red blood cells) resuspended in PBS for 15 min at 37° C. under gentle shaking. The 96-well plates were centrifuged at 600 rpm for 5 min and the minimum dilution at which intact blood cells began to form a pellet was recorded. Controls with no lactone were set 100%. Buffer only controls and pure BHB medium yielded no haemolysis.

HeLa cells = assay: Cytotoxicity, WST-1 cell proliferation test; assay type: cell-based; conditions: up to a concentration of 1 mM (300 mg/L), 24 h
Method: Cytotoxicity was determined in HeLa cells using the WST-1 cell proliferation test. Trypsinated cells were seeded at 100 μL aliquots with antibiotic free medium in Nunclon™ flat-bottom 96-well plates with 1·10^4 cells per well. After incubation of HeLa cells for 24 h, the medium was replaced by antibiotic free test medium containing 1 mM, 100 μM and 10 μM beta-lactone U1, DMSO as non-toxic control and 1% Triton X-100 as 100% lethal control. The DMSO content in all tests was kept at 1%. HeLa cells with test medium were incubated for 24 h, then 10 μL WST-1 reagent were added and after 30 min incubation absorption at 450 nm was read with 630 nm reference wavelength using a TECAN GENios Pro microplate reader.

[6] = test system: Listeria monocytogenes EGDe in the mouse macrophage-like cell line J774; assay: Infection of J774 cells and intracellular growth assay; assay type: cell-based; conditions: 1 mM, 3 h and 5 h post infection, vs DMSO
Method: In a Nunclon™ 96-well plate with flat-bottom 1·10^5 J774 cells per well were seeded in 100 μL 90% DMEM medium with 10% FBS without antibiotics. After 24 h incubation the resulting monolayer was washed once with 100 μL PBS and 100 μL of L. monocytogenes EGDe suspension in 90% DMEM medium with 10% FBS without antibiotics was added either with 1 mM beta-lactone U1 or DMSO. L. monocytogenes was grown in an over night culture with beta-lactone/DMSO and resuspended to approximately 10^6 cells/mL resulting in a multiplicity of infection (MOI) of 0.5. Macrophages were infected for 15 min at 37° C. after 15 min bacterial adherence on ice, as described in Molecular Microbiol. 2000, 35(6): 1286-1294 (incorporated herein by reference). Thereafter, the infected monolayer were washed two times with 100 μL PBS each and fresh 90% DMEM medium with 10% FBS containing 10 μg/mL gentamicin and 1 mM beta-lactone U1 or DMSO was added. After 0, 3 and 5 h post infection, the monolayers were washed again with two times 100 μL PBS and eukaryotic cells lysed by the addition of two times 250 μL of 0.05% solution of Triton X-100 in sterile deionised water. Intracellular bacteria were quantified by colony counting of serial dilutions plated on Listeria-agar (Ottaviani & Agosti Agar, Heipha Diagnostika, Eppelheim, Germany).

Compound | pIC50 [1] | probe concentration down to which lipase is labeled (lipase (Lip)) | interaction with lipase/acylhydrolase (LipAc) [2] | ADB labeling preference [3] | KAS II labeling [4] | pEC50 [5] | cytotoxicity to HeLa cells (HeLa cells) | lower growth in the eukaryotic cells [6]
C#CCCCC1OC(=O)C1CCCC (stereo not drawn) [G2, trans-3-butyl-4-(4-pentyn-1-yl)oxetan-2-one] | 5.30 | 20 nM | does not exhibit strong interaction | strong preference | labeled | – | – | –
C=CCCCCCCCC1C(=O)OC1CCc1ccccc1 (centres unmarked) [U1] | – | – | – | – | – | > 4.00 | non-cytotoxic; also recorded: Neither microscopic alterations of cell morphology nor significant inhibition of cell proliferation | approximately 76%
